Earlier results, collected in publication PMC7993281 (Clinical and Translational Science, 2020).

Test system: plasma GlcCer
Conditions: healthy subjects; cited from earlier work

With CC(C)(NC(=O)O[C@@H]1CN2CCC1CC2)c1csc(-c2ccc(F)cc2)n1 [venglustat] as the compound, how does the “decrease of plasma GlcCer” value read?
Its value is “up to 80%”.
